Results reported in US10316371B2, “Screening methods for identifying specific Staphylococcus aureus inhibitors” (TRANA DISCOVERY, INC., priority 2011, dated 2019).
≈ marks a conversion by molar mass, not a printed value. Where two headings read alike, the source gives them in different places.

Legend:
K. pneumoniae 700603 = experiment: MIC; assay type: cell-based; details: Klebsiella pneumoniae; K. pneumoniae 700603; read-out: MIC
[1] = system: SA USA 300 (Methicillin-Resistant Staphylococcus aureus USA300); experiment: MIC; assay type: cell-based; details: SA USA 300, read-out: MIC
Method: (§1) The strains included Staphylococcus aureus, Methicillin Resistant (ATCC 33591), Methicillin-Resistant Staphylococcus aureus USA300, Staphylococcus aureus 158, Staphylococcus aureus 22, Staphylococcus aureus 2, Staphylococcus aureus (ATCC 29213), and Staphylococcus aureus 182.
(§2) A series of compounds were evaluated for their activity against drug resistant S. aureus, including MSSA and MRSA strains.

[2] = system: SA 33591 (Staphylococcus aureus, Methicillin Resistant (ATCC 33591)); experiment: MIC; assay type: cell-based; details: ATCC33591, SA 33591, read-out: MIC
Method: as §1, §2

[3] = system: SA 22 (Staphylococcus aureus 22); experiment: MIC; assay type: cell-based; details: SA 22, read-out: MIC
Method: as §1, §2

[4] = system: SA 29213 (Staphylococcus aureus (ATCC 29213)); experiment: MIC; assay type: cell-based; details: ATCC29213, SA 29213, read-out: MIC
Method: as §1, §2

[5] = system: SA 182 (Staphylococcus aureus 182); experiment: MIC; assay type: cell-based; details: SA 182, read-out: MIC
Method: as §1, §2

[6] = system: SA 158 (Staphylococcus aureus 158); experiment: MIC; assay type: cell-based; details: SA 158, read-out: MIC
Method: as §1, §2

[7] = system: SA 2 (Staphylococcus aureus 2); experiment: MIC; assay type: cell-based; details: SA 2, read-out: MIC
Method: as §1, §2

K. pneumoniae UMM = experiment: MIC; assay type: cell-based; details: Klebsiella pneumoniae; K. pneumoniae UMM; read-out: MIC
Mammalian Cell Toxicity [8] = assay type: cell-based; details: mouse, 3T3 cells
[9] = system: S. aureus specific Arg ASL (anticodon stem loop) RNA oligomer interaction with programmed ribosomes; experiment: Fluorescence polarization assay of Arg ASL / programmed ribosome complex (HTS and dose response); assay type: binding, S. aureus Arg ASL; E. coli 70S ribosomes; details: 6 pt dose response, fluorescence polarization after 4 hours at 25° C., corrected for auto-fluorescence
Excerpt: The assay requires the following materials: • Ribosomes—isolated from E. coli or S. aureus • fMet tRNA (Sigma or Chemical Block, Moscow) • mRNA (including the S-D sequence, the “box” sequence, the codon for methionine, and the codon for arginine that is specific for S. aureus, AGA, optionally with additional base pairs to the left of the S-D sequence and/or to the right of the codon for arginine) • Fluorescently labeled Arg ASL oliogomer • Buffer—HAM20,β • 384 well high binding micro titer plates (Matrix Technologies #4319, sold by Fischer Scientific as cat #50823855), or other appropriate plates for use in high throughput screening • Filtration (Sartorius Stedium 100 Kdalton VC 1042) or centrifugation for complex purification • EDTA—negative control (binding antagonist) • Neomycin—A-site binding enhancer (binding agonist)
A ribosome complex was prepared using the above materials and then purified prior to use in the assay. The prepared complex can be stored in concentrated form at −80° C. The complexes were diluted in buffer and dispensed onto plates. […] Fluorescence polarization was measured at approximately 4 hours after dispensing onto the micro-titer plates.
ASL^Arg was first heated for 2 min at 90° C. in water, after addition of 1/10 V of 10× buffer incubation continued on ice for at least 10 min. Prior to complex formation 70S ribosomes and tRNA were reactivated in buffer for 5 min at 45° C. followed by 10 min at 37° C.; mRNA was heated in buffer at 37° C. for 5 min. • (1000 μl×(2 μM E. coli 70S ribosomes+10 μM mRNA-Arg+4 μM tRNA^fmet)/HAM20,β→30 min @ 37° C.,+1000 μl×(0.2 μM neomycin+[…]))→20 min @ 37° C., overnight on ice • Final complex: (2000 pm P+2000 pm ASL)/2 ml=1 μM P+1 μM ASL HAM20,β:
Preparation of Complexes: The purified complex was diluted in ice cold HAM20,β such that the total fluorescence was approximately 2,000,000 units per 5 μL.
20 μl of the diluted complex was added to all 384 well plates (except for blank wells, which received 20 μL of HAM20 only, without complex) using Multidrop dispenser after which the plates were incubated at 25° C. for 4 hours (target 4.5 hours for middle of batch). Plates were then analyzed for fluorescence polarization in Analyst HT fluorescence plate reader and the following instrument settings:
The parallel and perpendicular fluorescence values of experimental wells were automatically corrected for the corresponding values obtained from the blank wells. The fluorescence polarization was calculated as following: P=(I−Ip)/(I+Ip), wherein Ip—is perpendicular fluorescence and I—is parallel fluorescence.
The percent of effect of experimental compounds was calculated as following: %-Inh=(P0−Pc)/(P0−P100)*100, wherein P0—is average polarization in 0%—inhibition control wells, P100—is average polarization in 100%—inhibition control wells, and Pc—is polarization in compound well.
The 3 sigma HTS hits were cherry picked and retested in 6 pt dose response format, using 3× serial dilution and the top nominal concentration of 100 uM.
The compounds were serially diluted in 10% DMSO and plated into 384 well plates (in a volume of 5 μL) to achieve the nominal final concentration raging from 100 μM to 0.4 μM. The plates received 20 μl of the diluted complex following incubation at 25° C. for 4 hours. Plates were then analyzed for fluorescence polarization as described above (see HTS section).
In parallel, the compounds were tested for auto-fluorescence. To this end, the compounds were plated (using the same dilution protocol) into 384 well plates. The plates received 20 μL of the HAM20 assay buffer only (without complex). The plates were incubated for 4 hrs and then were analyzed for fluorescence polarization as described above.

E. coli 25922 = experiment: MIC; assay type: cell-based; details: Escherichia coli; E. coli 25922; read-out: MIC
E. coli ESBL 4 = experiment: MIC; assay type: cell-based; details: Escherichia coli, ESBL4; E. coli ESBL 4; read-out: MIC
S. pneumoniae 49619 = experiment: MIC; assay type: cell-based; details: Streptococcus pneumoniae; S. pneumoniae 49619; read-out: MIC
Method: (§3) The compounds were re-tested against other bacteria, including Staphylococcus epidermidis (ATCC 35984), Staphylococcus epidermidis (MRSE), E. faecium 134529, E. faecium 145494, […], E. faecium 161651, S. pneumoniae 49619, and S. pneumoniae 149389.
as §2

S. epidermidis 35984 = experiment: MIC; assay type: cell-based; details: Staphylococcus epidermidis; S. epidermidis 35984; read-out: MIC
Method: as §3, §2

E. faecalis 29212 = experiment: MIC; assay type: cell-based; details: Enterococcus faecalis; E. faecalis 29212; read-out: MIC
Method: as §3, §2

E. faecalis 161651 = experiment: MIC; assay type: cell-based; details: Enterococcus faecalis; E. faecalis 161651; read-out: MIC
Method: as §3, §2

E. faecium 134529 = experiment: MIC; assay type: cell-based; details: Enterococcus faecium; E. faecium 134529; read-out: MIC
Method: as §3, §2

S. epidermidis MRSE 01 = experiment: MIC; assay type: cell-based; details: Staphylococcus epidermidis; S. epidermidis MRSE 01; read-out: MIC
Method: as §3, §2

E. faecium 145494 = experiment: MIC; assay type: cell-based; details: Enterococcus faecium; E. faecium 145494; read-out: MIC
Method: as §3, §2

S. pneumoniae 149389 = experiment: MIC; assay type: cell-based; details: Streptococcus pneumoniae; S. pneumoniae 149389; read-out: MIC
Method: as §3, §2

Mammalian Cell Toxicity [10] = assay type: cell-based; details: human, MRC5 cells

## Oc1ccccc1N=Cc1c(O)c(Br)cc2oc3c(c12)CCCC3 [Compound 136, 3-bromo-1-{[(2-hydroxyphenyl)imino]methyl}-6,7,8,9-tetrahydrodibenzo[b,d]furan-2-ol]
K. pneumoniae 700603
  MIC: > 128 µg/mL
[1]
  MIC: 128 µg/mL (≈ 331 µM)
[2]
  MIC: 32 µg/mL (≈ 82.8 µM)
[3]
  MIC: 16 µg/mL (≈ 41.4 µM)
[4]
  MIC: 32 µg/mL (≈ 82.8 µM)
[5]
  MIC: > 128 µg/mL
[6]
  MIC: 32 µg/mL (≈ 82.8 µM)
[7]
  MIC: 16 µg/mL (≈ 41.4 µM)
K. pneumoniae UMM
  MIC: > 128 µg/mL
Mammalian Cell Toxicity [8]
  CC50: 2.3 µg/mL (≈ 5.95 µM)
[9]; read-out: IC50
  IC50: 80 µM
E. coli 25922
  MIC: > 128 µg/mL
E. coli ESBL 4
  MIC: > 128 µg/mL
S. pneumoniae 49619
  MIC: > 128 µg/mL
S. epidermidis 35984
  MIC: 64 µg/mL (≈ 166 µM)
E. faecalis 29212
  MIC: 128 µg/mL (≈ 331 µM)
E. faecalis 161651
  MIC: 128 µg/mL (≈ 331 µM)
E. faecium 134529
  MIC: 64 µg/mL (≈ 166 µM)
S. epidermidis MRSE 01
  MIC: 8 µg/mL (≈ 20.7 µM)
E. faecium 145494
  MIC: > 128 µg/mL
S. pneumoniae 149389
  MIC: > 128 µg/mL
Mammalian Cell Toxicity [10]
  CC50: 6.8 µg/mL (≈ 17.6 µM)

## O=C(O)C(c1ccccc1)N1C(=O)C(=Cc2c[nH]c3ccccc23)SC1=S (stereo not drawn) [Compound 537, [5-(1H-indol-3-ylmethylene)-4-oxo-2-thioxo-1,3-thiazolidin-3-yl](phenyl)acetic acid]
K. pneumoniae 700603
  MIC: > 128 µg/mL
[1]
  MIC: 64 µg/mL (≈ 162 µM)
[2]
  MIC: 64 µg/mL (≈ 162 µM)
[3]
  MIC: 64 µg/mL (≈ 162 µM)
[4]
  MIC: 64 µg/mL (≈ 162 µM)
[5]
  MIC: 64 µg/mL (≈ 162 µM)
[6]
  MIC: 64 µg/mL (≈ 162 µM)
[7]
  MIC: 128 µg/mL (≈ 324 µM)
K. pneumoniae UMM
  MIC: > 128 µg/mL
Mammalian Cell Toxicity [8]
  CC50: 20 to 64 µg/mL (≈ 50.7 to 162 µM)
[9]
  IC50: agonist
E. coli 25922
  MIC: > 128 µg/mL
E. coli ESBL 4
  MIC: > 128 µg/mL
S. pneumoniae 49619
  MIC: 32 µg/mL (≈ 81.1 µM)
S. epidermidis 35984
  MIC: 128 µg/mL (≈ 324 µM)
E. faecalis 29212
  MIC: 128 µg/mL (≈ 324 µM)
E. faecalis 161651
  MIC: 128 µg/mL (≈ 324 µM)
E. faecium 134529
  MIC: 128 µg/mL (≈ 324 µM)
S. epidermidis MRSE 01
  MIC: 128 µg/mL (≈ 324 µM)
E. faecium 145494
  MIC: > 128 µg/mL
S. pneumoniae 149389
  MIC: 64 µg/mL (≈ 162 µM)
Mammalian Cell Toxicity [10]
  CC50: 38 µg/mL (≈ 96.3 µM)

## CN1CCN(c2nc(C=Cc3ccccc3)nc3ccccc23)CC1 [Compound #096, 4-(4-methyl-1-piperazinyl)-2-(2-phenylvinyl)quinazoline]
K. pneumoniae 700603
  MIC: > 128 µg/mL
[1]
  MIC: 64 µg/mL (≈ 194 µM)
[2]
  MIC: > 128 µg/mL
[3]
  MIC: 64 µg/mL (≈ 194 µM)
[4]
  MIC: 64 µg/mL (≈ 194 µM)
[5]
  MIC: 128 µg/mL (≈ 387 µM)
[6]
  MIC: 128 µg/mL (≈ 387 µM)
[7]
  MIC: 32 µg/mL (≈ 96.8 µM)
K. pneumoniae UMM
  MIC: > 128 µg/mL
Mammalian Cell Toxicity [8]
  CC50: 51.5 µg/mL (≈ 156 µM)
[9]; read-out: IC50
  IC50: 91 µM
E. coli 25922
  MIC: > 128 µg/mL
E. coli ESBL 4
  MIC: > 128 µg/mL
S. pneumoniae 49619
  MIC: 64 µg/mL (≈ 194 µM)
S. epidermidis 35984
  MIC: > 128 µg/mL
E. faecalis 29212
  MIC: 128 µg/mL (≈ 387 µM)
E. faecalis 161651
  MIC: 128 µg/mL (≈ 387 µM)
E. faecium 134529
  MIC: 64 µg/mL (≈ 194 µM)
S. epidermidis MRSE 01
  MIC: 128 µg/mL (≈ 387 µM)
E. faecium 145494
  MIC: 128 µg/mL (≈ 387 µM)
S. pneumoniae 149389
  MIC: 64 µg/mL (≈ 194 µM)
Mammalian Cell Toxicity [10]
  CC50: 62 µg/mL (≈ 188 µM)
